Reference: patent USRE38825E1, “Glyphosate tolerant plants” (Monsanto Technology LLC, priority 1990, dated 2005)
Where two headings read alike, the source gives them in different places.

What was measured:
most plant species [1] = details: in vivo; cited from earlier work
most plant species [2] = details: Franz, 1985; cited from earlier work
[3] = system: glyphosate oxidoreductase; experiment: Glyphosate oxidoreductase activity in isolated chloroplasts from transgenic tobacco; format: biochemical, Nicotiana tabacum; details: substrate 50 mM; 30 minute assays; without ubiquinone; chloroplasts of plants #22844, 22854, 22886, 22887
[4] = molecular target: LBAA glyphosate oxidoreductase variant ARG 334 (His334 to Arg) (Ochrobactrum sp. G-1, UniProt D2KI28, H334R/S2A); experiment: Kinetic analysis of glyphosate oxidoreductase variant ARG 334 (site-directed mutagenesis); format: biochemical, bacterial isolate LBAA (Pseudomonas strain LBAA)
[5] = molecular target: LBAA glyphosate oxidoreductase variant v.247 (v1v2v3: GLY84, ARG153, ARG334), SEQ ID NO:18 (Ochrobactrum sp. G-1, UniProt D2KI28, H334R/K153R/S2A/S84G); experiment: Kinetic analysis of glyphosate oxidoreductase variant v.247; format: biochemical, bacterial isolate LBAA (Pseudomonas strain LBAA); details: v.247
Procedure: The mutagenesis procedure used was that of Mn++-poisoned PCR and the template was a linearized glyphosate oxidoreductase gene plasmid containing the synthetic glyphosate oxidoreductase gene (SEQ ID NO:8). The oligonucleotide primers used were homologous to regions in the vector and flanking the glyphosate oxidoreductase gene. The PCR conditions employed were as follows: 1 minute at 94° C., 2 minutes at 55° C., and 3 minutes at 72° C. and with 35 cycles. A 5:1 ratio of dCTP+dGTP+TTP to dATP was used. The reactions contained MnCl2 at 125, 250, 375, or 500 μM. After the reaction, the amplified product was recloned into a vector containing a weak E. coli promoter. This vector was a pBR327 derivative containing the araBAD promoter and suitable cloning sites. One hundred colonies from this cloning step were then screened in E. coli GB993 for improved glyphosate tolerance and utilization phenotypes in media composed of MOPS minimal medium with glyphosate and Pi or with glyphosate alone, respectively. Growth rates were determined by measuring A550 over a 96 hour period. […] The glyphosate oxidoreductase gene was recloned into the expression vector portion and this phenotype verified. All kinetic analysis was performed on crude E. coli lysates. Putative glyphosate oxidoreductase variant proteins were overexpressed after subcloning the NcoI/HindIII variant glyphosate oxidoreductase gene into PrecA-gene10L expression vector. For overexpression in PrecA-gene10L constructs, GB993 cells containing the vector were induced at a Klett=110-120 in M9 minimal medium with 50 μg/ml nalidixic acid and allowed to grow for 2.5 hours at 37° C. with vigorous shaking. Cells were harvested by centrifugation at 4000 g, 5 minutes at 4° C., and resuspend in 100 mM Tris-HCl, pH 7.1, 1 mM EDTA, 35 mM KCl, 20% glycerol, and 1 mM benzamidine at 3 ml/g cell pellet. Lysates were prepared by breaking the cells in a French press, twice, at 1000 psi. Insoluble debris was removed by centrifugation at 12000 g, 15 minutes at 4° C., and the supernatant was de-salted by passing over a PD-10 column (Sephadex G-25, Pharmacia). The void volume fraction was used as the source of enzyme for kinetic analysis. Protein concentrations were determined using the Bio-Rad protein dye-binding assay. Time and enzyme concentration courses were performed to determine linear ranges. […] Ten minutes was determined to be the optimal time for the enzyme assay using 10 μg lysate. After 10 minutes at 30° C. with shaking, 0.25 ml dinitrophenylhydrazine (DNPH) reagent (0.5 mg/ml in 0.5M HCl) was added and the reaction was allowed to proceed for an additional 5 minutes at 30° C. with shaking. A 1.5M NaOH solution (400 μl) was then added to the assay mix, and the reaction was continued for 5 minutes at 30° C. with shaking. Enzyme activity was determined from the amount of glyoxylate-DNPH adduct formed by measuring A520 against a standard of glyoxylate. Enzyme assays are performed in duplicate on at least two different single colony isolates of a putative glyphosate oxidoreductase variant. To determine Km and Vmax, enzyme assays were performed over a (0.2-2.0)×Km range of glyphosate concentrations. The Km and Vmax were determined from Lineweaver Burk, Eadie-Hofstee and hyperbolic kinetic plots. Vmax was estimated after determining the amount of immunoreactive glyphosate oxidoreductase protein in lysates by immunoblot analysis as described below. Immunoblot analysis was performed following SDS-PAGE and transfer of protein from the gel to nitrocellulose at 500 mA in a Hoeffer transfer apparatus in 25 mM Tris-HCl, 192 mM glycine containing 0.1% SDS and 25% methanol for 1-2 hours. After transfer, the nitrocellulose was incubated with 50 mM Tris-HCl, pH7.5, 0.9% NaCl, 0.01% Tween 20, 0.02% NaN3 containing 2% bovine serum albumin at room temperature with shaking for at least 30 minutes. […]

[6] = system: glyphosate oxido-reductase from LBAA; experiment: Glyphosate oxidoreductase reaction with substrates; format: biochemical; details: oxidation to glycine and glyoxylate
Description: The enzyme glyphosate oxidoreductase catalyzes the cleavage of the C-N bond of glyphosate yielding aminomethyl phosphonate (AMPA) and glyoxylate as the reaction products. Under aerobic conditions, oxygen is utilized as a cosubstrate for the reaction. Other electron carriers such as phenazine methosulfate and ubiquinone stimulate the reaction under aerobic conditions. In the absence of oxygen, these compounds act as electron acceptors.
The enzymatic reaction can be assayed by oxygen uptake using an oxygen electrode. […] This enzyme has a stoichiometry of two moles of glyphosate oxidized per mole of oxygen consumed and produces two moles each of AMPA and glyoxylate as reaction products.
In addition to glyphosate, glyphosate oxido-reductase from LBAA oxidizes iminodiacetic acid (IDA) to glycine and glyoxylate.

[7] = Kinetic analysis of glyphosate oxidoreductase variants in crude E. coli lysates (glyoxylate-DNPH assay), substrate glyphosate; format: biochemical; details: 25 mM glyphosate
Description: Using this PCR approach, glyphosate oxidoreductase genes from a number of sources have been isolated. The presence of the glyphosate oxidoreductase activity was confirmed by cloning the glyphosate oxidoreductase gene from chromosomal DNA prepared from Pseudomonas sp. strain LBr (Jacob et al., 1988) and using primers homologous to the N- and C-termini of the LBAA glyphosate oxidoreductase gene and containing the following suitable restriction cloning sites: 5′-[…]-3′ (SEQ ID NO:13) and 5′-[…]-3′ (SEQ ID NO:14). Cyclotherm parameters used for these PCR reactions is as follows: • Denature at 94° C. for 1 minute; • Anneal at 60° C. for 2 minutes; • Polymerize at 72° C. for 3 minutes, • 30 cycles, no autoextension, linked to 4° C. incubation. […]
A population of bacteria was isolated from a fixed-bed immobilized cell column, which employed Mannville R-635 diatomaceous earth beads, by plating on Tryptone Soy Agar (Difco), containing cylcoheximide at 100 ug/ml, and incubating at 28° C. […] The glyphosate oxidoreductase activity was assayed and the Km for glyphosate also determined:
The mutagenesis procedure used was that of Mn++-poisoned PCR and the template was a linearized glyphosate oxidoreductase gene plasmid containing the synthetic glyphosate oxidoreductase gene (SEQ ID NO:8). […] Growth rates were determined by measuring A550 over a 96 hour period. […]

## NCP(=O)(O)O [AMPA, aminomethylphosphonate]
Most plant species [1]
  phytotoxicity: much less phytotoxic than glyphosate
Most plant species [2]
  phytotoxicity: much less phytotoxic than glyphosate

## O=C(O)CNCP(=O)(O)O [Glyphosate, N-phosphonomethyl-glycine]
[3]
  Specific Activity: 92 nmol/min/mg

## O=C(O)CNCC(=O)O [IDA, iminodiacetic acid]
[4]
  VmKm (IDA): 1.2
  app Vm (IDA): 0.6 U/mg
[4]; read-out: spp Km (IDA)
  Km: 500 µM
[5]; read-out: spp Km (IDA), pH 7.4, 30° C., crude E. coli lysate
  Km: 700 µM
[5]
  VmKm (IDA): 1.0
[5]; pH 7.4, 30° C.
  app Vm (IDA): 0.7 U/mg

## O=C(O)CNCC(=O)O [Iminodiacetic acid, iminodiacetic acid]
[3]
  Specific Activity: 179 nmol/min/mg
[6]
  rate of the reaction: significantly faster than with glyphosate

B1: v.247: glyphosate oxidoreductase variant (SEQ ID NO:18); GLY84, ARG153, ARG334 (protein)
chain: MAENHKKVGIAGAGIVGVCTALMLQRRGFKVTLIDPNPPGEGASFGNAGCFNGSSVVPMSMPGNLTSVPKWLLDPMGPLSIRFGYFPTIMPWLIRFLLAGRPNKVKEQAKALRNLIKSTVPLIKSLAEEADASHLIRHEGHLTVYRGEADFARDRGGWELRRLNGVRTQILSADALRDFDPNLSHAFTKGILIEENGHTINPQGLVTLLFRRFIANGGEFVSARVIGFETEGRALKGITTTNGVLAVDAAVVAAGAHSKSLANSLGDDIPLDTERGYHIVIANPEAAPRIPTTDASGKFIATPMEMGLRVAGTVEFAGLTAAPNWKRAHVLYTRARKLLPALAPASSEERYSKWMGFRPSIPDSLPVIGRATRTPDVIYAFGHGHLGMTGAPMTATLVSELLAGEKTSIDISPFAPNRFGIGKSKQTGPAS
[7]
  fold higher specific activity for glyphosate oxidoreductase: 3-4 fold
